Data from patent publication US20250034089A1, “TETRAHYDROCARBAZOLE COMPOUND, AND PHARMACEUTICAL COMPOSITION AND USE THEREOF” (NAIN BIOTECH (HANGZHOU) CO., LTD., priority 2021, published 2025).

Tested on: LO2 (human normal liver cells)
Assay: In vitro proliferation inhibition (CCK-8), LO2
Assay type: cell-based
Source text: • 1) Cell sources: HeLa (human cervical cancer cells), CaSki (human cervical cancer intestinal metastasis cells), Huh7 (human liver cancer cells), HepG2 (human liver cancer cells), Hep3B (human liver cancer cells) were purchased from the Chinese Academy of Sciences cell bank (Shanghai); LO2 (human normal liver cells) and HcerEpic (human normal uterine epithelial cells) were from ATCC. • 2) Cell culture and passage: The cell culture and passage method is the same as that described in “The inhibitory effect of compounds on the OCT4 protein in tumor stem cells (CSC)”. • 3) Cell dosing treatment: The each type of cells mentioned above was digested, counted, and inoculated in each well of the 96 well cell culture plate (#3988, Corning) at a density of 5000 cells/200 μl culture medium. They were cultured in a cell culture incubator at 37° C. and 5% CO2 for 24 hours to allow the cells to fully adherent to the wall. Then, the original culture medium was replaced with complete culture medium containing gradient diluted KZT-A5 (each concentration with 3 repeated wells) as well as DMSO (#D5879, Sigma Aldrich) solvent control, and they are cultured for additional 72 hours. • 4) Pharmacodynamic test and statistics: First, the morphology of cells treated with the above compounds was observed, photographed and recorded using an inverted phase contrast microscope (X71, Olympus). Then the original culture medium was replaced with phenol red free culture medium containing CCK-8 detection reagent (#E606335, Shanghai Shenggong) respectively, and they are cultured in the incubator for additional 2 hours. Then the OD450 nm absorbance value (OD value) was measured on a multifunctional enzyme-linked immunosorbent assay (168-1130, Bio Rad). […] Further, the IC50 of each compound was calculated in SPSS based on the inhibition rate. […]

`COc1cc(/C=C2\CCc3c([nH]c4ccc(C)cc34)C2=O)ccc1O` [KZT-A5] was tested, and the IC50 (LO2, 72 hours, CCK-8, average of three wells in one test) was 82.1 µM and the IC50 (LO2, test (2), average±standard deviation of three wells) was 96.5 ± 13 µM.
